Molecular target: T1, Fatty-acid amide hydrolase 1 (Mus musculus, UniProt O08914)
T1 sequence (O08914 whole entry): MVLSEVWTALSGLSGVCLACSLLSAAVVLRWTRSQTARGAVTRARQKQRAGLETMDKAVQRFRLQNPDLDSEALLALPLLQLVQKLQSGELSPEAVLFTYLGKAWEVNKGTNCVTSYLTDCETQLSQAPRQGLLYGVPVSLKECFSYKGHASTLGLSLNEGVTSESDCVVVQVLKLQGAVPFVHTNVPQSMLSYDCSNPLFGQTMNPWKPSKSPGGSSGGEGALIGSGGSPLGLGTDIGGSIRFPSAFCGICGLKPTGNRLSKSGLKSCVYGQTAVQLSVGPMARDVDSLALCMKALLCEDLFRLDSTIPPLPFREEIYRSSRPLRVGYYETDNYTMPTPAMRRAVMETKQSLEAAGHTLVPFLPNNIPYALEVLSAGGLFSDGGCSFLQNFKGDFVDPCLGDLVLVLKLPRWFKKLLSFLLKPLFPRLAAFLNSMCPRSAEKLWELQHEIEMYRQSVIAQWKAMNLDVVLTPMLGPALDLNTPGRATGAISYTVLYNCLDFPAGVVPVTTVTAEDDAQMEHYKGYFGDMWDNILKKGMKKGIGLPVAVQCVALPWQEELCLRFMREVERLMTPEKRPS
Assay: Inhibition of mouse brain FAAH assessed as conversion of [3H-ethanolamine]AEA to [3H]ethanolamine by scintillation counting

Work on `C/C(=N\OC(=O)Nc1cccc2ccccc12)c1cccc(-c2ccccc2)c1` yielded an IC50 of 10 nM.
With `C/C(=N\OC(=O)Nc1cccc2ccccc12)c1ccc(-c2cccs2)s1` the IC50 was > 1000 nM.
Work on `C/C(=N\OC(=O)Nc1ccc2sccc2c1)c1cccc(-c2ccccc2)c1` yielded an IC50 of 232 nM.
`C/C(=N\OC(=O)Nc1ccccc1)c1cccc(-c2cccc(C(N)=O)c2)c1` showed an IC50 of 84 nM.
Work on `C/C(=N\OC(=O)NCCCCCc1ccccc1)c1cccc(-c2ccccc2)c1` yielded an IC50 of 100 nM.
`C/C(=N\OC(=O)Nc1ccccc1)c1ccc(-c2cccs2)cc1` was tested, and the IC50 was 200 nM.
In the case of `C/C(=N\OC(=O)N(c1ccccc1)c1ccccc1)c1cccc(-c2ccccc2)c1`, the IC50 is reported as > 50000 nM.
`C/C(=N\OC(=O)Nc1ccccc1)c1cccc(-c2cccc(C(=O)NC(=O)Nc3ccccc3)c2)c1` was tested, and the IC50 was > 25000 nM.
With `C/C(=N\OC(=O)N(C)C)c1ccc(-c2ccccc2)cc1` the IC50 was > 50000 nM.
With `C/C(=N\OC(=O)Nc1cccc2ccccc12)c1ccc(-n2c(C)ccc2C)cc1` the IC50 was > 1000 nM.

— ChEMBL document CHEMBL1208724, “A new group of oxime carbamates as reversible inhibitors of fatty acid amide hydrolase” (Bioorg Med Chem Lett, 2010)
